Results as given in patent US10464922B2, “Metalloenzyme inhibitor compounds” (NQP 1598 LTD., priority 2015, dated 2019).
≈ marks a conversion by molar mass, not a printed value.

Assays:
C. albicans (ATCC 90028) = assay: Minimum inhibitory concentration, in vitro broth microdilution assay (CLSI M27-A2); type: cell-based, Candida albicans; conditions: Candida albicans, ATCC90028, 48 h, ATCC 90028; about 50% growth reduction; 2 days at 36° C.; range tested 8-0.0078 μg/mL; values given as ranges; read-out: Candida albicans MIC
Experimental: The antifungal potency of the test compounds was measured using the in vitro broth microdilution assay under assay conditions described by the Clinical and Laboratory Standards Institute (CLSI M27-A2). The test compounds were dissolved in 100% DMSO, suspended completely by sonication or vortexing, diluted by 2-fold serial titrations in the same vehicle, for a total of 11 test concentrations. A 4 μL aliquot of each dilution was added to 196 μL of RPMI-1640+MOPS medium seeded with the C. albicans (ATCC 90028) suspension in wells of a 96 well plate (fungal cell count: 1×10^3 to 1×10^4 colony forming units per mL). The final volume was 200 μL in each well and the final DMSO concentration was 2 percent. The inoculated plates were incubated for 2 days at 36° C. Following incubation, the test plates were visually examined and wells were scored for growth to define the minimum inhibitory concentration. […] Each test substance was evaluated in duplicate. Vehicle-control and an active reference agent (e.g., posaconazole) were used as blank and positive controls, respectively.

A. fumigatus = A. fumigatus MIC at 100% growth inhibition (CLSI M38-A2); type: cell-based, Aspergillus fumigatus; conditions: Aspergillus fumigatus, 100% growth inhibition; range tested 8-0.0078 μg/mL; values given as ranges; read-out: Aspergillus fumigatus MIC
Experimental: A. fumigatus MICs were determined at 100% growth inhibition following CLSI guidelines at a concentration range of 8-0.0078 μg/mL (CLSI M38-A2).

| Structure (SMILES) | MIC (C. albicans (ATCC 90028)) | MIC (A. fumigatus) |
| --- | --- | --- |
| N#Cc1ccc(C2CCN(c3ccc(-c4ccc(C(F)(F)[C@](O)(Cn5cnnn5)c5ccc(F)cc5F)nc4)cc3)CC2)cc1 [Example 26, (R)-4-(1-(4-(6-(2-(2,4-difluorophenyl)-1,1-difluoro-2-hydroxy-3-(1H-tetrazol-1-yl)propyl)pyridin-3-yl)phenyl)piperidin-4-yl) benzonitrile] | 0.0078 to 0.01 µg/mL (≈ 0.0127 to 0.0163 µM) | 0.25 to 1 µg/mL (≈ 0.407 to 1.63 µM) |
| N#Cc1ccc(N2CCN(Cc3ccc(-c4ccc(C(F)(F)[C@](O)(Cn5cnnn5)c5ccc(F)cc5F)nc4)cc3)C(=O)C2)cc1 [Example 27, (R)-4-(4-(4-(6-(2-(2,4-difluorophenyl)-1,1-difluoro-2-hydroxy-3-(1H-tetrazol-1-yl)propyl)pyridin-3-yl)benzyl)-3-oxopiperazin-1-yl) benzonitrile] | 0.01 to 0.1 µg/mL (≈ 0.0156 to 0.156 µM) | > 8 µg/mL |
| O=Cc1ccc(N2CCN(c3ccc(-c4ccc(C(F)(F)[C@](O)(Cn5cnnn5)c5ccc(F)cc5F)nc4)cc3)CC2)cc1 [Example 29, (R)-4-(4-(4-(6-(2-(2,4-difluorophenyl)-1,1-difluoro-2-hydroxy-3-(1H-tetrazol-1-yl)propyl)pyridin-3-yl)phenyl)piperazin-1-yl) benzaldehyde] | 0.01 to 0.1 µg/mL (≈ 0.0162 to 0.162 µM) | > 8 µg/mL |
| CN(C)Cc1ccc(N2CCN(c3ccc(-c4ccc(C(F)(F)[C@](O)(Cn5cnnn5)c5ccc(F)cc5F)nc4)cc3)CC2)cc1 [Example 30] | 0.0078 to 0.01 µg/mL (≈ 0.0121 to 0.0155 µM) | 0.25 to 1 µg/mL (≈ 0.387 to 1.55 µM) |
| O=Cc1ccc(N2CCN(c3ccc(-c4ccc(C(F)(F)[C@](O)(Cn5cnnn5)c5ccc(F)cc5F)nc4)cc3)CC2)cn1 [Example 32, (R)-5-(4-(4-(6-(2-(2,4-difluorophenyl)-1,1-difluoro-2-hydroxy-3-(1H-tetrazol-1-yl)propyl)pyridin-3-yl)phenyl)piperazin-1-yl) picolinaldehyde] | 0.1 to 1 µg/mL (≈ 0.162 to 1.62 µM) | 0.25 to 1 µg/mL (≈ 0.404 to 1.62 µM) |
| CN(C)Cc1ccc(N2CCN(c3ccc(-c4ccc(C(F)(F)[C@](O)(Cn5cnnn5)c5ccc(F)cc5F)nc4)cc3)CC2)cn1 [Example 33, (R)-2-(2,4-difluorophenyl)-1-(5-(4-(4-(6-((dimethylamino)methyl)pyridin-3-yl)piperazin-1-yl)phenyl)pyridin-2-yl)-1,1-difluoro-3-(1H-tetrazol-1-yl) propan-2-ol] | 0.01 to 0.1 µg/mL (≈ 0.0154 to 0.154 µM) | 1 to 4 µg/mL (≈ 1.54 to 6.18 µM) |
| OC(c1ccc(N2CCN(c3ccc(-c4ccc(C(F)(F)[C@](O)(Cn5cnnn5)c5ccc(F)cc5F)nc4)cc3)CC2)nc1)C(F)(F)F (stereo partly drawn) [Example 34, (2R)-2-(2,4-difluorophenyl)-1,1-difluoro-3-(1H-tetrazol-1-yl)-1-(5-(4-(4-(5-(2,2,2-trifluoro-1-hydroxyethyl)pyridin-2-yl)piperazin-1-yl)phenyl)pyridin-2-yl) propan-2-ol] | 0.0078 to 0.01 µg/mL (≈ 0.0113 to 0.0145 µM) | 0.25 to 1 µg/mL (≈ 0.363 to 1.45 µM) |
| O[C@@](Cn1cnnn1)(c1ccc(F)cc1F)C(F)(F)c1ccc(-c2ccc(N3CCN(c4ccc5[nH]c(C(F)(F)F)nc5c4)CC3)cc2)cn1 [Example 35, (R)-2-(2,4-difluorophenyl)-1,1-difluoro-3-(1H-tetrazol-1-yl)-1-(5-(4-(4-(2-(trifluoromethyl)-1H-benzo [d]imidazol-5-yl)piperazin-1-yl)phenyl)pyridin-2-yl) propan-2-ol] | 0.0078 to 0.01 µg/mL (≈ 0.0112 to 0.0143 µM) | 0.25 to 1 µg/mL (≈ 0.358 to 1.43 µM) |
| CCC(C(C)O)n1ccc(N2CCN(c3ccc(-c4ccc(C(F)(F)[C@](O)(Cn5cnnn5)c5ccc(F)cc5F)nc4)cc3)CC2)cc1=O (stereo partly drawn) [Example 37, 4-(4-(4-(6-((R)-2-(2,4-difluorophenyl)-1,1-difluoro-2-hydroxy-3-(1H-tetrazol-1-yl)propyl)pyridin-3-yl)phenyl)piperazin-1-yl)-1-(2-hydroxypentan-3-yl) pyridin-2(1H)-one] | 0.01 to 0.1 µg/mL (≈ 0.0144 to 0.144 µM) | > 8 µg/mL |
| CCC(O)c1ccc(N2CCN(c3ccc(-c4ccc(C(F)(F)[C@](O)(Cn5cnnn5)c5ccc(F)cc5F)nc4)cc3)CC2)cc1 (some centres unmarked) [Example 39] | 0.01 to 0.1 µg/mL (≈ 0.0154 to 0.154 µM) | 0.25 to 1 µg/mL (≈ 0.386 to 1.54 µM) |
| CC(C)C(O)c1ccc(N2CCN(c3ccc(-c4ccc(C(F)(F)[C@](O)(Cn5cnnn5)c5ccc(F)cc5F)nc4)cc3)CC2)cc1 (stereo partly drawn) [Example 40, 1-(4-(4-(4-(6-((R)-2-(2,4-difluorophenyl)-1,1-difluoro-2-hydroxy-3-(1H-tetrazol-1-yl)propyl)pyridin-3-yl)phenyl)piperazin-1-yl)phenyl)-2-methylpropan-1-ol] | 0.0078 to 0.01 µg/mL (≈ 0.0118 to 0.0151 µM) | 0.25 to 1 µg/mL (≈ 0.378 to 1.51 µM) |
| CC(C)CC(O)c1ccc(N2CCN(c3ccc(-c4ccc(C(F)(F)[C@](O)(Cn5cnnn5)c5ccc(F)cc5F)nc4)cc3)CC2)cc1 (stereo partly drawn) [Example 41, 1-(4-(4-(4-(6-((R)-2-(2,4-difluorophenyl)-1,1-difluoro-2-hydroxy-3-(1H-tetrazol-1-yl)propyl)pyridin-3-yl)phenyl)piperazin-1-yl)phenyl)-3-methylbutan-1-ol] | 0.0078 to 0.01 µg/mL (≈ 0.0115 to 0.0148 µM) | 0.25 to 1 µg/mL (≈ 0.37 to 1.48 µM) |
| OC(c1ccc(N2CCN(c3ccc(-c4ccc(C(F)(F)[C@](O)(Cn5cnnn5)c5ccc(F)cc5F)nc4)cc3)CC2)cc1)C1CC1 (stereo partly drawn) [Example 42, (2R)-1-(5-(4-(4-(4-(cyclopropyl (hydroxy)methyl)phenyl)piperazin-1-yl)phenyl)pyridin-2-yl)-2-(2,4-difluorophenyl)-1,1-difluoro-3-(1H-tetrazol-1-yl) propan-2-ol] | 0.0078 to 0.01 µg/mL (≈ 0.0118 to 0.0152 µM) | > 8 µg/mL |
| CC(C)(C)C(O)c1ccc(N2CCN(c3ccc(-c4ccc(C(F)(F)[C@](O)(Cn5cnnn5)c5ccc(F)cc5F)nc4)cc3)CC2)cc1 (stereo partly drawn) [Example 43, 1-(4-(4-(4-(6-((R)-2-(2,4-difluorophenyl)-1,1-difluoro-2-hydroxy-3-(1H-tetrazol-1-yl)propyl)pyridin-3-yl)phenyl)piperazin-1-yl)phenyl)-2,2-dimethylpropan-1-ol] | 0.0078 to 0.01 µg/mL (≈ 0.0115 to 0.0148 µM) | 0.25 to 1 µg/mL (≈ 0.37 to 1.48 µM) |
| CC(O)c1ccc(N2CCN(c3ccc(-c4ccc(C(F)(F)[C@](O)(Cn5cnnn5)c5ccc(F)cc5F)nc4)cc3)CC2)cn1 (stereo partly drawn) [Example 44, (2R)-2-(2,4-difluorophenyl)-1,1-difluoro-1-(5-(4-(4-(6-(1-hydroxyethyl)pyridin-3-yl)piperazin-1-yl)phenyl)pyridin-2-yl)-3-(1H-tetrazol-1-yl) propan-2-ol] | 0.0078 to 0.01 µg/mL (≈ 0.0123 to 0.0158 µM) | 1 to 4 µg/mL (≈ 1.58 to 6.3 µM) |
| CC(C)C(O)c1ccc(N2CCN(c3ccc(-c4ccc(C(F)(F)[C@](O)(Cn5cnnn5)c5ccc(F)cc5F)nc4)cc3)CC2)cn1 (stereo partly drawn) [Example 45, 1-(5-(4-(4-(6-((R)-2-(2,4-difluorophenyl)-1,1-difluoro-2-hydroxy-3-(1H-tetrazol-1-yl)propyl)pyridin-3-yl)phenyl)piperazin-1-yl)pyridin-2-yl)-2-methylpropan-1-ol] | 0.0078 to 0.01 µg/mL (≈ 0.0118 to 0.0151 µM) | 0.25 to 1 µg/mL (≈ 0.377 to 1.51 µM) |
| OC(c1ccc(N2CCN(c3ccc(-c4ccc(C(F)(F)[C@](O)(Cn5cnnn5)c5ccc(F)cc5F)nc4)cc3)CC2)cn1)C1CC1 (some centres unmarked) [Example 46] | 0.0078 to 0.01 µg/mL (≈ 0.0118 to 0.0151 µM) | > 8 µg/mL |
| CC(C)(O)c1ccc(N2CCN(c3ccc(-c4ccc(C(F)(F)[C@](O)(Cn5cnnn5)c5ccc(F)cc5F)nc4)cc3)CC2)cn1 [Example 47, (R)-2-(2,4-difluorophenyl)-1,1-difluoro-1-(5-(4-(4-(6-(2-hydroxypropan-2-yl)pyridin-3-yl)piperazin-1-yl)phenyl)pyridin-2-yl)-3-(1H-tetrazol-1-yl) propan-2-ol] | 0.01 to 0.1 µg/mL (≈ 0.0154 to 0.154 µM) | 0.25 to 1 µg/mL (≈ 0.385 to 1.54 µM) |
| CCC(O)c1ccc(N2CCN(c3ccc(-c4ccc(C(F)(F)[C@](O)(Cn5cnnn5)c5ccc(F)cc5F)nc4)cc3)CC2)cn1 (stereo partly drawn) [Example 48, 1-(5-(4-(4-(6-((R)-2-(2,4-difluorophenyl)-1,1-difluoro-2-hydroxy-3-(1H-tetrazol-1-yl)propyl)pyridin-3-yl)phenyl)piperazin-1-yl)pyridin-2-yl)propan-1-ol] | 0.01 to 0.1 µg/mL (≈ 0.0154 to 0.154 µM) | 0.25 to 1 µg/mL (≈ 0.385 to 1.54 µM) |
| CC(C)CC(O)c1ccc(N2CCN(c3ccc(-c4ccc(C(F)(F)[C@](O)(Cn5cnnn5)c5ccc(F)cc5F)nc4)cc3)CC2)cn1 (stereo partly drawn) [Example 49, 1-(5-(4-(4-(6-((R)-2-(2,4-difluorophenyl)-1,1-difluoro-2-hydroxy-3-(1H-tetrazol-1-yl)propyl)pyridin-3-yl)phenyl)piperazin-1-yl)pyridin-2-yl)-3-methylbutan-1-ol] | 0.01 to 0.1 µg/mL (≈ 0.0148 to 0.148 µM) | 0.062 to 0.25 µg/mL (≈ 0.0916 to 0.369 µM) |
| CC(C)(C)C(O)c1ccc(N2CCN(c3ccc(-c4ccc(C(F)(F)[C@](O)(Cn5cnnn5)c5ccc(F)cc5F)nc4)cc3)CC2)cn1 (stereo partly drawn) [Example 50, 1-(5-(4-(4-(6-((R)-2-(2,4-difluorophenyl)-1,1-difluoro-2-hydroxy-3-(1H-tetrazol-1-yl)propyl)pyridin-3-yl)phenyl)piperazin-1-yl)pyridin-2-yl)-2,2-dimethylpropan-1-ol] | 0.01 to 0.1 µg/mL (≈ 0.0148 to 0.148 µM) | 0.25 to 1 µg/mL (≈ 0.369 to 1.48 µM) |
| OC(CC(F)(F)F)c1ncc(N2CCN(c3ccc(-c4ccc(C(F)(F)[C@](O)(Cn5cnnn5)c5ccc(F)cc5F)nc4)cc3)CC2)cn1 (stereo partly drawn) [Example 51, 1-(5-(4-(4-(6-((R)-2-(2,4-difluorophenyl)-1,1-difluoro-2-hydroxy-3-(1H-tetrazol-1-yl)propyl)pyridin-3-yl)phenyl)piperazin-1-yl)pyrimidin-2-yl)-3,3,3-trifluoropropan-1-ol] | 0.0078 to 0.01 µg/mL (≈ 0.0111 to 0.0142 µM) | 1 to 4 µg/mL (≈ 1.42 to 5.68 µM) |
